Assays:
Assay in all cases: relative viability (nuclei count vs DMSO), 5 days (fraction); higher = more cells survive
BAY61-3606 = compound: COC1=C(C=C(C=C1)C2=CC3=NC=CN3C(=N2)NC4=C(C=CC=N4)C(=O)N)OC [BAY61-3606]
How it was run: (§1)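 Lung cancer cell lines in 1536-well plates were kept overnight at 37 °C, then pinned with five library-drug doses (not always all listed) spaced by √10 on vehicle-anchored plates. After 5 days without medium change, cells were fixed, permeabilised and Hoechst-stained in one step, imaged at 4×, and nuclei were counted with MetaXpress. Viability is treated-well nuclei divided by vehicle-well nuclei, taken as the median over plates. Plates passed only with control CV below 25% and at least one doubling.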

Doxorubicin = compound: COc1cccc2c1C(=O)c1c(O)c3c(c(O)c1C2=O)C[C@@](O)(C(=O)CO)C[C@@H]3O[C@H]1C[C@H](N)[C@H](O)[C@H](C)O1 [Doxorubicin]
How it was run: as §1

Doxorubicin + Bortezomib = compound: COc1cccc2c1C(=O)c1c(O)c3c(c(O)c1C2=O)C[C@@](O)(C(=O)CO)C[C@@H]3O[C@H]1C[C@H](N)[C@H](O)[C@H](C)O1 [Doxorubicin] + CC(C)C[C@H](NC(=O)[C@H](Cc1ccccc1)NC(=O)c1cnccn1)B(O)O [Bortezomib] (partner 0.002 µM)
How it was run: (§2)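 Relative viability divides the nuclei count in treated wells by that in vehicle wells. Lung cancer cell lines were seeded in 1536-well plates, dosed by pin tool the next day, and fixed and stained after 5 days in one step with final 0.05% Triton X-100, 1% formaldehyde and 1 ug/ml Hoechst. Dosing was a single drug or a fixed anchor-drug dose plus five library-drug doses (not always all listed) in √10 steps, and values are medians of duplicate plates imaged at 4×.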

BAY61-3606 + Alpelisib = compound: COC1=C(C=C(C=C1)C2=CC3=NC=CN3C(=N2)NC4=C(C=CC=N4)C(=O)N)OC [BAY61-3606] + Cc1nc(NC(=O)N2CCC[C@H]2C(N)=O)sc1-c1ccnc(C(C)(C)C(F)(F)F)c1 [Alpelisib] (partner 2 µM)
How it was run: as §2

Cell Line	relative viability (BAY61-3606; 0.02 µM)	relative viability (BAY61-3606; 0.06325 µM)	relative viability (BAY61-3606; 0.2 µM)	relative viability (BAY61-3606; 0.6325 µM)	relative viability (BAY61-3606; 2 µM)	relative viability (Doxorubicin; 0.001 µM)	relative viability (Doxorubicin; 0.003162 µM)	relative viability (Doxorubicin; 0.01 µM)	relative viability (Doxorubicin; 0.03162 µM)	relative viability (Doxorubicin; 0.1 µM)	relative viability (Doxorubicin + Bortezomib; first compound 0.001 µM)	relative viability (Doxorubicin + Bortezomib; first compound 0.003162 µM)	relative viability (Doxorubicin + Bortezomib; first compound 0.01 µM)	relative viability (Doxorubicin + Bortezomib; first compound 0.03162 µM)	relative viability (Doxorubicin + Bortezomib; first compound 0.1 µM)	relative viability (BAY61-3606 + Alpelisib; first compound 0.02 µM)	relative viability (BAY61-3606 + Alpelisib; first compound 0.2 µM)	relative viability (BAY61-3606 + Alpelisib; first compound 0.6325 µM)	relative viability (BAY61-3606 + Alpelisib; first compound 2 µM)	relative viability (BAY61-3606 + Alpelisib; first compound 0.06325 µM)
NCI-H1666	1.14	0.996	0.958	1.04	1.01	0.902	0.996	0.814	0.548	0.525	0.833	0.559	0.476	0.302	0.272	0.903	0.981	0.993	0.956	–
NCI-H1734	1.04	0.979	0.746	0.935	0.602	0.923	1.11	0.876	0.669	0.608	0.867	1.09	0.89	0.588	0.429	0.706	0.653	0.654	0.413	0.615
Calu-6	1.07	1.05	0.979	0.963	0.807	0.966	1.02	0.929	0.566	0.431	0.897	1.01	0.804	0.408	0.248	1.04	0.946	0.956	0.703	1.13
EBC-1	1.04	0.999	0.953	1.04	0.888	1	1.09	1.01	0.702	0.534	0.589	0.52	0.542	0.363	0.222	0.907	0.869	0.928	0.686	0.902
NCI-H596	0.96	0.96	1.07	1.15	0.86	0.97	1.16	1.08	0.853	0.948	–	1.26	1.01	0.928	0.972	0.428	0.108	0.479	0.407	0.482
A-427	1.08	1.01	0.963	1.03	0.892	0.969	1.03	0.936	0.81	0.757	1.03	1.06	0.966	0.942	0.991	1.11	1.1	1.07	1.06	1.13
NCI-H3122	1.02	1	0.985	1.01	0.961	0.946	1.01	0.908	0.876	0.92	1.04	0.97	1.02	1.01	0.957	0.797	0.868	0.833	0.69	0.879
NCI-H1437	1.03	1.03	0.978	1	0.941	0.991	1.01	0.894	0.718	0.409	0.491	0.605	0.472	0.205	0.185	0.987	0.935	1.06	0.903	0.988
HCC-366	0.988	1.03	1.01	0.96	0.903	0.909	0.991	1.02	0.959	0.587	–	1.06	1.05	0.326	0.0968	0.449	0.369	0.388	0.212	0.343
NCI-H2347	1.03	1.05	1.04	1	1.05	0.992	1.08	0.945	0.945	0.838	1.05	0.697	0.955	0.908	0.692	1.17	1.13	1.16	0.986	0.9
IA-LM	0.984	0.864	0.956	1.03	0.86	0.902	1.04	0.889	0.749	0.508	0.819	0.877	0.648	0.404	0.136	0.805	0.98	0.748	0.661	–
HARA	1.03	0.927	0.945	0.953	0.866	0.983	1.12	1.07	0.945	0.955	1.1	0.993	1.11	1.08	1	0.867	0.877	0.83	0.561	0.88
SW 1573	1.04	1.03	0.905	1	0.659	0.876	0.914	0.539	0.364	0.292	0.98	1.1	0.817	0.466	0.339	0.838	0.88	0.822	0.451	0.679
NCI-H1792	0.982	0.853	1	0.885	1.03	–	0.885	0.964	0.903	0.747	0.929	1.1	1	0.898	0.924	0.743	0.74	0.751	0.674	0.673
HCC-827	1.02	1.01	1.06	1.1	0.994	1.01	1.01	1.04	1.03	1	1.05	1.03	1.07	1.01	0.956	0.94	0.995	0.954	0.916	1.01
LC-2-ad	1.07	1.01	0.932	1.04	0.841	0.883	0.909	0.948	0.943	0.793	1.01	0.962	0.995	0.834	0.544	0.851	0.875	0.82	0.671	0.96

Cell Line	relative viability (BAY61-3606; 0.02 µM)	relative viability (BAY61-3606; 0.06325 µM)	relative viability (BAY61-3606; 0.2 µM)	relative viability (BAY61-3606; 0.6325 µM)	relative viability (BAY61-3606; 2 µM)	relative viability (Doxorubicin; 0.001 µM)	relative viability (Doxorubicin; 0.003162 µM)	relative viability (Doxorubicin; 0.01 µM)	relative viability (Doxorubicin; 0.03162 µM)	relative viability (Doxorubicin; 0.1 µM)	relative viability (Doxorubicin + Bortezomib; first compound 0.001 µM)	relative viability (Doxorubicin + Bortezomib; first compound 0.003162 µM)	relative viability (Doxorubicin + Bortezomib; first compound 0.01 µM)	relative viability (Doxorubicin + Bortezomib; first compound 0.03162 µM)	relative viability (Doxorubicin + Bortezomib; first compound 0.1 µM)	relative viability (BAY61-3606 + Alpelisib; first compound 0.02 µM)	relative viability (BAY61-3606 + Alpelisib; first compound 0.2 µM)	relative viability (BAY61-3606 + Alpelisib; first compound 0.6325 µM)	relative viability (BAY61-3606 + Alpelisib; first compound 2 µM)	relative viability (BAY61-3606 + Alpelisib; first compound 0.06325 µM)
NCI-H520	1.07	1.06	1.07	1.12	1.05	0.901	1.03	0.939	0.799	0.822	0.575	0.581	0.46	0.361	0.269	1.07	1.11	1.04	1.02	0.801
NCI-H460	1.04	1.03	0.959	0.998	0.891	0.957	0.96	0.859	0.468	0.141	0.981	0.964	0.244	0.0223	0.0093	0.58	0.482	0.398	0.174	0.442
SK-LU-1	1.08	1.04	1.04	1.06	0.694	1	1.05	0.987	0.798	0.654	–	1.19	1.25	0.945	0.671	1.37	1.04	0.844	0.421	0.951
COR-L23	1.05	1.09	1.06	1	0.909	0.998	1.05	0.932	0.718	0.235	1.04	0.996	0.872	0.447	0.156	0.868	0.753	0.78	0.486	0.764
NCI-H2126	1.07	0.931	0.944	1.05	0.915	0.946	1	0.97	0.914	1.01	1.08	1.12	1.1	1.1	1.13	0.784	0.705	0.739	0.671	0.769
LCLC-103H	1.07	0.992	0.993	1.03	0.987	0.966	1.04	0.981	1.02	0.957	1.07	1.12	1.08	1.14	1.12	0.94	0.981	1.03	1.04	0.965
NCI-H1975	0.958	0.964	0.913	0.874	0.668	1.02	0.985	0.951	0.778	0.518	0.433	0.364	0.321	0.226	0.165	0.667	0.62	0.507	0.295	0.645
NCI-H2085	1.08	1.03	0.995	1.08	0.934	0.971	0.996	0.994	0.926	0.95	0.903	1.05	0.907	0.709	0.716	0.994	1.04	0.949	0.871	0.977
COR-L 105	0.932	0.892	0.951	0.852	0.568	0.951	0.853	0.827	0.706	0.503	0.787	0.71	0.74	0.41	0.256	0.942	0.76	1.02	0.788	0.988
NCI-H23	1.11	1.03	0.78	0.947	0.789	–	1.06	0.978	0.654	0.532	–	1.06	0.93	0.514	0.567	0.776	0.653	0.829	0.41	0.594
NCI-H1299	1.02	1.01	1.02	1.04	0.989	1.02	1.05	0.984	1.02	0.943	1.04	1.03	1.01	1.07	0.962	1.05	1.07	1	1.03	1.08
PC-14	1.07	1.04	0.916	0.992	0.877	0.974	1.05	1.01	0.789	0.52	0.775	0.964	0.861	0.979	0.94	0.996	0.929	1.06	0.841	0.995
NCI-H1703	1.16	0.789	0.77	0.919	0.558	0.857	0.936	0.812	0.4	0.351	0.234	0.324	0.25	0.165	0.0968	0.377	0.317	0.305	0.218	0.385
NCI-H2087	0.996	1.15	1.18	1.11	0.961	0.819	1.15	1.01	0.78	0.636	0.6	0.7	0.869	0.678	0.55	1.15	1.02	1.16	0.949	1.17
NCI-H1755	1.05	1	0.995	1.05	0.988	0.999	0.979	1	1.03	1.02	0.99	0.947	0.985	0.981	0.969	0.946	0.908	0.903	0.77	1.01
